Where two headings read alike, the source gives them in different places.
Legend:
aqueous solubility = type: physicochemical; conditions: water
HIV = type: cell-based
oral availability = type: in vivo; conditions: oral administration, mammals
HIV-1 protease = assay: ligand for / inhibition of HIV-1 protease; type: biochemical
HIV-1 virus = assay: HIV-1 infection of immortalized human T cells, assay of extracellular p24 antigen; type: cell-based; conditions: over a period of days
Text: Accordingly, the compound is capable of targeting and inhibiting late stage events in HIV replication, i.e., the processing of the viral polyproteins by HIV encoded proteases. […] Because aspartyl protease is essential for the production of mature virions, inhibition of that processing effectively blocks the spread of virus by inhibiting the production of infectious virions, particularly from chronically infected cells. […] Other anti-viral assays have confirmed the potency of this compound.

HIV-2 protease = assay: ligand for / inhibition of HIV-2 protease; type: biochemical
[1] = Text: […]. The potential of this compound to be delivered at doses far exceeding its effective antiviral level is advantageous in slowing or preventing the possibility of resistant variants developing.
[2] = cited from earlier work
[3] = prior-art HIV drugs, background statement, nucleosides compared with AZT

Which solubility (aqueous solubility) does the source give for `CC(C)CN(CC(O)C(Cc1ccccc1)NC(=O)OC1CCOC1)S(=O)(=O)c1ccc(N)cc1` (stereo not shown) [Compound I] here?
Its solubility is ≥ 100 µg/mL.

What about the “combination effect in preventing the replication of HIV in human T cells (in words)” value (HIV) of the same molecule?
Its value is “acts in an additive or synergistical manner”.

And the “oral availability (in words)” value (oral availability)?
The value was “surprisingly impressive oral availability”.

And the “ligand for HIV-1 protease (in words)” value (HIV-1 protease)?
Its value is “excellent ligand”.

What about the “inhibition of the ability of HIV-1 to infect immortalized human T cells (in words)” value (HIV-1 virus) of the same molecule?
Its value is “inhibits the ability of the HIV-1 virus to infect immortalized human T cells”.

And the “ligand for HIV-2 protease (in words)” value (HIV-2 protease)?
The value was “excellent ligand”.

What about the “therapeutic index (in words)” value [1] of the same molecule?
The value was “impressively high therapeutic index”.

Which “CNS distribution / CNS penetration (in words)” value [2, 3] does the source give for `Cc1cn([C@H]2C=C[C@@H](CO)O2)c(=O)[nH]c1=O` [d4T] here?
Its value is “even worse distribution profiles in the CNS”.

With `CC(C)(C)NC(=O)[C@@H]1CN(Cc2cccnc2)CCN1C[C@@H](O)C[C@@H](Cc1ccccc1)C(=O)N[C@H]1c2ccccc2C[C@H]1O` [Compound L-535524] as the molecule, how does the “CNS distribution / CNS penetration (in words)” value [2, 3] read?
Its value is “about the same distribution”.

For `CC(C)c1nc(CN(C)C(=O)N[C@H](C(=O)N[C@@H](Cc2ccccc2)C[C@H](O)[C@H](Cc2ccccc2)NC(=O)OCc2cncs2)C(C)C)cs1` [ABT 538], which “CNS distribution / CNS penetration (in words)” value ([2]; in vivo) is on record?
Its value is “very limited CNS penetration”.
